The source of these data is article PMC11017246, “Discovery of GLPG2737, a Potent Type 2 Corrector of CFTR for the Treatment of Cystic Fibrosis in Combination with a Potentiator and a Type 1 Co-corrector” (Journal of Medicinal Chemistry, 2024).

The nature of data set [1]: Liver microsomal stability, rat. The data set is classed as in vitro ADME. The settings on record: liver microsomes; rat microsomes; calculated from measured fumic; read-out: Mic CLint,u rat (converted). The procedure: (§1) The microsomal stability assay was performed by incubation of test compound at 1 μM, 0.2% DMSO in phosphate buffer with microsomes (0.5 mg/mL) from mouse, rat, dog, or human (Xeno-Tech, Kansas City, KS, USA), and cofactors with final concentrations of 0.6 U/mL glucose-6- phosphate dehydrogenase, 3.3 mM MgCl2, 3.3 mM glucose-6-phosphate, and 1.3 mM nicotinamide adenine dinucleotide phosphate (NADP)+. Before addition of the microsomes (time zero) and after 30 min of incubation at 37 °C with shaking, the reaction was stopped, and proteins were precipitated with an excess of acetonitrile containing an internal standard. The samples were mixed, centrifuged, and filtered, and the supernatant was analyzed by liquid chromatography–mass spectrometry/mass spectrometry (LC–MS/MS). The instrument responses (peak areas/IS peak areas) were referenced to the zero-time point samples (considered as 100%) to determine the percentage of compound remaining. In vitro unbound intrinsic clearance (CLint,u) was calculated from the half-life using the following equations: [drawing 1] [drawing 2] To take into account nonspecific binding, scaled CLint values were corrected with the fraction unbound in microsomes (fu, mic). [drawing 3]
(§2) Equilibrium dialysis is a technique used to measure microsomal binding. Briefly, the assay was performed in a 96-well Teflon dialysis unit (Dialysis Device), where each well consists of two chambers separated by a dialysis membrane (membrane strips, MW cutoff 12–14 kDa, HTDialysis). Inactivated liver microsomes (pooled human liver microsomes, Xenotech, protein concentration of 0.5 mg/mL) spiked with a compound (1 μM final concentration, 0.5% DMSO) were added to one chamber and buffer solution (50 mM PBS Buffer) was added to the other side of the well. Each compound was analyzed in duplicate for 4 h at 37 °C. At the end of incubation, both chambers were sampled and analyzed by LC-MS/MS. The unbound microsomal fraction (fu, mic) was calculated as the concentration in buffer divided by the total concentration in the microsomal side. Positive controls included in this assay are terfenadine and verapamil.

A short description of data set [2]: Liver microsomal stability, human. The class given is in vitro ADME. The settings on record: liver microsomes; human microsomes; calculated from measured fumic; read-out: Mic CLint,u human (converted). The method, then:
as §1, §2

Data set [3] concerns the target T1, ΔF508 CFTR (Homo sapiens, UniProt P13569, DEL508-508).
T1 construct: host or cells: CFBE41o- TetON cells, expression induced with doxycycline
Briefly: CSE-HRP: cell surface expression horseradish peroxidase assay in CFBE41o- cells. The data set is classed as cell-based. Particulars: no additional corrector; for Emax: CFBE41o-, relative to lumacaftor or 5 (3 μM) positive control, read-out: CSE-HRP % max activation; for EC50: 24 h incubation, 33 °C, geometric mean, read-out: CSE-HRP EC50. The method, then:
A CFBE41o– cell line stably expressing ΔF508 CFTR harboring an HRP-tag in the fourth extracellular loop was obtained from Professor Gergely Lukacs (Department of Physiology, McGill University, Montreal, QC, Canada).[25] Cells were grown in Eagle’s minimal essential medium (Life Technologies) supplemented with 10% FBS, 1% L-glutamine (Life Technologies), 10 mM HEPES (Life Technologies), 200 μg/mL Geneticin (Life Technologies), and 3 μg/mL puromycin (Sigma) in culture flasks coated with 0.01% bovine serum albumin (BSA) (Sigma), 30 μg/mL Purecol (Nutacon), and 0.001% human fibronectin (Sigma).
CFBE41o– TetON cells expressing HRP tagged ΔF508-CFTR were seeded in white 384-well plates (Greiner) at a density of 2000 cells per well. Medium containing 500 ng/mL doxycycline was used to induce expression of ΔF508-CFTR-HRP. After 3 days, cells were treated with corrector or potentiator compounds and transferred to an incubator at 33 °C. On day 4, cells were washed five times with PBS containing Ca^2+ and Mg^2+ using a Bio-Tek plate washer and incubated with a chemiluminescent HRP substrate (SuperSignal West Pico Chemiluminescent Substrate, Thermo Scientific) for 15 min. Chemiluminescence was measured using an Envision plate reader (PerkinElmer). Dose response data was fitted using a 4 parameter hill function of the form Response = neg control + (pos control – neg control)/(1 + 10^(log EC50-concentration)/HillSlope) to determine EC50 values. Percentage efficacy was calculated using the following formula: (max response – neg control)/(C1 response – neg control).

The nature of data set [4]: Hepatocyte stability, rat. The data set is classed as in vitro ADME. The settings on record: read-out: Hep CLint,u rat (converted). The procedure: (§3) The hepatocyte stability assay was performed by incubation of test compound at 1 μM, 0.03% DMSO in modified Krebs–Henseleit buffer with suspension of pooled cryopreserved hepatocytes (BioIVT, Hicksville, NY, USA) from mouse, rat, dog, or human (BioIVT, Hicksville, NY, USA) at 0.5 million viable hepatocytes/mL. Before adding the hepatocytes (time zero) and after 10, 20, 45, 90, 120, and 180 min of incubation (n = 2) at 37 °C while gently shaking, the reaction was stopped and proteins were precipitated with an excess of acetonitrile containing an internal standard. The samples were mixed, centrifuged, and filtered, and the supernatant was analyzed by liquid chromatography–mass spectrometry/mass spectrometry (LC–MS/MS). The instrument responses (peak areas/IS peak areas) were referenced to the zero-time point samples (considered as 100%) in order to determine the percentage of compound remaining.

The nature of data set [5]: Hepatocyte stability, human. The class given is in vitro ADME. Particulars: human hepatocytes; read-out: Hep CLint,u human. The procedure:
as §3

The nature of data set [6]: Plasma protein binding, rat. The data set is classed as in vitro ADME. The settings on record: pH 7.4, read-out: PPB % rat (converted). The method, then:
(§4) Plasma protein binding was determined by equilibrium dialysis using the Pierce Red Device plate with inserts (ThermoScientific). Test compound at 5 μM (0.5% DMSO) spiked in freshly thawed human, rat, mouse, or dog plasma (Bioreclamation INC, Westbury, NY, USA) was dialyzed against phosphate-buffered saline (PBS, pH 7.4) at 37 °C under shaking for 4 h. Aliquots were taken from each side of the well, and matrix matched. Proteins were precipitated with an excess of acetonitrile, samples were mixed and centrifuged, and the supernatant was analyzed by liquid chromatography–mass spectrometry/mass spectrometry (LC–MS/MS). Addition of compound peak areas in the buffer chamber and the plasma chamber was considered to be 100% compound.

A short description of a further data set: PK rat. The settings on record: iv. The class given is in vivo. The procedure: These studies were performed with naïve male Sprague–Dawley rats (Janvier France, 6–8 weeks old). Rats were dosed iv via a bolus in the tail vein with a dose level of 0.1 mg/kg or orally as a single esophageal gavage with a dose level of 5 mg/kg. For the iv route, the compound was formulated in PEG200/water (60/40; v/v). For the oral route, the compound was formulated in MC 0.5% (2/98) as a homogeneous suspension. Before the oral dosing, the animals were deprived of food for at least 12 h before compound administration until 3 h after administration. All animals had free access to the tap water. Blood samples were collected under light anesthesia and placed into tubes containing Li-heparin as an anticoagulant. Blood samples were collected up to 24 h after dosing (n = 3 rats per route). After centrifugation, the resulting plasma samples were assayed by LC-MS/MS with a nongood laboratory practice (non-GLP)-validated method. PK parameters were calculated by noncompartmental analysis using WinNonlin software (Certara, Princeton, NJ, USA).

Data set [7] can be described thus: Plasma protein binding, human. The settings on record: human, plasma, pH 7.4, human plasma; read-out: PPB % human (converted). The class given is in vitro ADME. The method, then: as §4
Data set [8] addresses T1, ΔF508 CFTR. In words: TECC (transepithelial clamp circuit) in primary CF-derived HBE cells. The class given is cell-based. The settings on record: footnote b: after 24 h incubation a fixed 1 μM C2 corrector concentration was added during the recording. The procedure:
Bronchial epithelial cells isolated from the lungs of patients with CF homozygous for the ΔF508 CFTR mutation were obtained from McGill University (Montreal, QC, Canada) or the University of North Carolina (Chapel Hill, NC, United States). Cells were isolated from lungs obtained from donors undergoing planned transplantation. These primary cells were cultured directly on type IV collagen-coated polycarbonate Transwell supports with a diameter of 6.5 mm and pore size of 0.4 μm (Costar, #3397) for 18–25 days in an air–liquid interface, essentially as previously described for TECC.[23]
Twenty-four hours prior to the electrophysiological recording, corrector and/or potentiator compounds were added on both the apical and basolateral sides. TECC recordings were performed by using the TECC instrument developed and sold by EP Design (Bertem, Belgium). During the recording, the epithelial cells were bathed in a NaCl-Ringer solution (120 mM NaCl, 20 mM HEPES, 1.2 mM CaCl2, 1.2 mM MgCl2, 0.8 mM KH2PO4, 0.8 mM K2HPO4, 5 mM glucose, pH 7.4) on both the basolateral (640 μL) and the apical (160 μL) sides and kept at 37 °C. Corrector and potentiator compounds were readded at the same concentration used during the 24 h pretreatment. Apical amiloride was used to inhibit the endogenous ENaC currents (100 μM), while forskolin (10 μM) was applied on both the apical and basolateral sides to stimulate CFTR. Measurements were done during a 20 min time frame with recordings every 2 min. The transepithelial potential and transepithelial resistance were measured in an open circuit and transformed to Ieq using Ohm’s law. The maximal increase in Ieq (ΔIeq, the difference in current before and after forskolin or potentiator treatment) was used as a measure for the increased CFTR activity. EC50 values were generated by measuring the impact of different concentrations of compounds on ΔIeq in primary cells. For this purpose, each transwell was treated with a different compound concentration. CFTRInh-172 was added apically at 10 μM to assess the specificity of the response. Dose response data was fitted using a 3-parameter hill function of the form Response = Bottom + (Top – Bottom)/(1 + (EC50/concentration)) to determine EC50 values. Percentage efficacy was calculated using the following formula: (max response – neg control)/(C1 response – neg control).

The mark [9] stands for this setting: pooled cryopreserved hepatocytes in suspension.

T1 sequence (P13569 with tags, fused parts or gaps DEL508-508): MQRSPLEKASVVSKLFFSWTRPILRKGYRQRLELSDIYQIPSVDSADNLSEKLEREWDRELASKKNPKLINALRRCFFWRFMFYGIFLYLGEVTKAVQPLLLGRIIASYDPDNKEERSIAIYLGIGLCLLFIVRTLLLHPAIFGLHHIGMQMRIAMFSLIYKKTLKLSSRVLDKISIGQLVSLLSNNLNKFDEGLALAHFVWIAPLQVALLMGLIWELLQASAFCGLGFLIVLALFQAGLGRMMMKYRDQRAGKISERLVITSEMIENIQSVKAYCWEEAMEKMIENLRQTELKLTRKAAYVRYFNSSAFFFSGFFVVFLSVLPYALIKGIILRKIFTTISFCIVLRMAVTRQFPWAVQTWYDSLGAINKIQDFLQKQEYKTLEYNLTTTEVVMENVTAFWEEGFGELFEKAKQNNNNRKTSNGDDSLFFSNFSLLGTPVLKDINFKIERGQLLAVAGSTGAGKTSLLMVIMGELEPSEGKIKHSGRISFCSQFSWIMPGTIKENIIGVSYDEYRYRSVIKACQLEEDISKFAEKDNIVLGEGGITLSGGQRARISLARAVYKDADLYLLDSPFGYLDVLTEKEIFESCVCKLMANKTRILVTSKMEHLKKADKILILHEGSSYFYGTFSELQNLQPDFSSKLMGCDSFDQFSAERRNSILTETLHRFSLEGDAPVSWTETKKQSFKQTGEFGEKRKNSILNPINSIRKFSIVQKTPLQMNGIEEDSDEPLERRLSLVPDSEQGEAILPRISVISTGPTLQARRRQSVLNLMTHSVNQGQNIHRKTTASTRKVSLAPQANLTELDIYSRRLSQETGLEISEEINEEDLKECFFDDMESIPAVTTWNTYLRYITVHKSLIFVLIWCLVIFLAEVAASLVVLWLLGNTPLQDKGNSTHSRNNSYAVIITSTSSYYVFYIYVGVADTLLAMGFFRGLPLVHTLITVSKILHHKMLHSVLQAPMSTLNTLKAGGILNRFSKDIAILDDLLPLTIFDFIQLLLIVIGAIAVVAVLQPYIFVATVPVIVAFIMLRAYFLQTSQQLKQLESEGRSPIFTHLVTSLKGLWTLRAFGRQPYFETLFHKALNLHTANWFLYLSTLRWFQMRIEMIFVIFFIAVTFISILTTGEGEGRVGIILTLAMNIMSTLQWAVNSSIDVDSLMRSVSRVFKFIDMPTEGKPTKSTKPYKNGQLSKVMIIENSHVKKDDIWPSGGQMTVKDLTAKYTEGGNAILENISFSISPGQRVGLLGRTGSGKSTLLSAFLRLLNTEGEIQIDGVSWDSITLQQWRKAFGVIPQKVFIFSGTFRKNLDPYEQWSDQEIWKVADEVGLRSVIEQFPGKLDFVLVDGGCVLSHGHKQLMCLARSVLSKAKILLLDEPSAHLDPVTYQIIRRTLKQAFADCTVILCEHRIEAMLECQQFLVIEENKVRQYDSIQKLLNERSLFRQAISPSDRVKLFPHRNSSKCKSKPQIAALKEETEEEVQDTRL

As for `COc1ccc(-c2cc(C(=O)O)nc3c2c(C)nn3-c2ccc(C)cc2)cc1` [Compound 6], the CLint scaled at 1 μM in [1] was 182 mL/min/kg; in data set [2] it was below 59.8 mL/min/kg; in [4] (setting [9]), 263 mL/min/kg. Also, the Emax on ΔF508 CFTR [3] was found to be 64%. Further, the EC50 at ΔF508 CFTR [3] was 4130 nM.

For the molecule `COc1ccc(-c2cc(C(=O)O)nc3c2c(C)nn3-c2ccccc2)cc1` [Compound 7], the CLint scaled at 1 μM in [1] was 180 mL/min/kg; in data set [2], 173 mL/min/kg; in [4] (setting [9]), 305 mL/min/kg. For the same molecule, the Emax at ΔF508 CFTR [3] is 95%. In addition, the EC50 on ΔF508 CFTR [3] was 2480 nM.

For the molecule `Cc1nn(-c2ccccc2)c2nc(C(=O)O)cc(-c3ccc(N4CCOCC4)cc3)c12` [Compound 8], the CLint scaled at 1 μM in [1] is below 43.3 mL/min/kg; in data set [2], below 28.3 mL/min/kg; in data set [5], below 45.7 mL/min/kg; in data set [4] (rat hepatocytes) it was 66.7 mL/min/kg.

Regarding `CS(=O)(=O)NC(=O)c1cc(N2CCC(N3CCOCC3)CC2)c2c(C3CCC3)nn(-c3ccc(F)cc3)c2n1` [Compound 50], the fraction unbound at 4 h, 5 μM in [6] was 0.009; in data set [7], 0.013. The molecule also showed a CLu rat in “PK rat” (unbound clearance) of 205 mL/min/kg. In addition, the clearance in the data set “PK rat” (male, Sprague-Dawley, plasma, 0.1 mg/kg, read-out: CLp rat (converted)) is 1.83 mL/min/kg. In “PK rat” (male, Sprague-Dawley, plasma, 0.1 mg/kg, read-out: t1/2 iv rat (converted)), the half-life is 3.31 h. Besides, the Vd in the data set “PK rat” (male, Sprague-Dawley, plasma, 0.1 mg/kg, read-out: Vss rat) was determined as 0.47 L/kg. For the same molecule, on ΔF508 CFTR [8] (HBE, read-out: TECC HBE with GLPG2222 % max activation), the Emax amounted to 410%. Also, the EC50 on ΔF508 CFTR [8] (read-out: TECC HBE with GLPG2222 EC50) amounted to 46 nM. For the same molecule, the CLint scaled at 1 μM in data set [4] (setting [9]) is below 11.5 mL/min/kg.
